Measured values from article PMC10810823, “Generation of a new therapeutic D-peptide that induces the differentiation of acute myeloid leukemia cells through A TLR-2 signaling pathway” (Cell Death Discovery, 2024).
Where a SMILES comes first, the peptide text is derived from it. Where no end group is shown, it is not given here. [ ]: non-standard residue; d: D form.

Tests used:
[1] = system: THP-1 cells; assay: Differentiation: cell surface CD11b and CD14 by FACS; format: cell-based, human; settings: THP-1, 48 h; ***P < 0.001; 6 independent experiments
Experimental: (§1) The THP-1, U937, and HL-60 cell lines were purchased from ATCC. THP-1, HL-60, and U937 cells were cultured in RPMI 1640 containing 2 mM glutamine, 100 IU/ml penicillin and 100 μg/ml streptomycin (Sigma), supplemented with 10% fetal bovine serum (FBS; Gibco). Cell cultures were maintained at 37 °C, 5% CO2 at 0.8–1 × 10^5 cells/ml. For the initiation of differentiation in THP-1, HL-60, U937, and primary AML cells, the cells were seeded into 12-well tissue culture plates at 1 × 10^6 cells/well. Subsequently, these cells were exposed to the indicated clonal phages (10^10 virions per well), peptides (10 μg/ml), or 100 nM PMA (Sigma-Aldrich, MO, USA).
Differentiation status was also assessed by morphological observation of the cells and by FACS detection of cell surface CD11b and CD14 expression (Table 3). FcR Blocking Reagent (Miltenyi Biotec) was employed to prevent undesired antibody binding and enhance the staining specificity of cell surface antigens.

[2] = system: THP-1 cells; assay: Cell differentiation induction: ratio of adherent cells; format: cell-based, human; settings: clonal phages P1, P2, P6, P9 enriched in Round 3; Fig. 1G
Experimental: as §1
Cells were cultured according to the method described above. As the adherent cell numbers reached a peak at 48 h and declined after 72 h, we chose 48 h as the incubation time in the following experiments. Following the incubation period, cells within each were washed 3 times with PBS. Cells were considered to be adherent if they resisted the vigorous shake of the culture flask and washing by pipetting with a normal growth medium. To assess the ratio of adherent cells, an equal amount of FITC beads (BioLegend, Catalog # 424601, CA, USA) was separately introduced to both suspended and adherent cells. Subsequently, the proportions of FITC beads were measured using FACS. […]

[3] = system: NOD/SCID mice; assay: In vivo toxicity at 10-fold treatment dose (H&E of major organs, glucose and serum biochemical indices); settings: 200 mg/kg i.v. every 3 days, 30 days, n = 3 per group
Experimental: Based on the above in vitro findings, we next tested whether the peptides could suppress the growth of leukemia cells in vivo. To this end, NOD/SCID mice were subcutaneously inoculated with THP-1 cells. L-pep-P6, D-pep-P6, or pep-NC was injected intravenously into NOD/SCID mice (n = 3 per group) at a 10-fold treatment dose (200 mg/kg) every 3 days. We first examined the toxicity of these peptides in vivo. After 30 days of indicated treatments, the major organs, including the heart, kidney, spleen, liver, and lung, were isolated and stained with hematoxylin and eosin. No histological changes in major organs were detectable in the peptide-treated groups when compared with the untreated group (Fig. 4A). We further examined the glucose and serum biochemical indices, such as aspartate aminotransferase (AST), alanine aminotransferase (ALT), creatinine (Cr), and urea.
The mice were categorized into three groups, including the pep-NC group, the D-pep-P6 group, and the […] group (n = 3 per group). These groups received a dosage that was ten times the standard therapeutic amount via the tail vein. Major organs of mice from different treated groups were fixed in 4% formaldehyde for hematoxylin and eosin staining. Following a hydration process, the tissues were stained with Harris hematoxylin for 15 min. […]

[4] = In vivo pharmacokinetic assay; set-up: species or system NOD/SCID mice
Experimental: In addition, we administered a therapeutic dose of D-pep-P6 (20 mg/kg) via intravenous tail injection into NOD/SCID mice (n = 3 per group). Serum samples were collected at various time points, and the content of D-pep-P6 was quantitatively analyzed using high-performance liquid chromatography coupled with mass spectrometry (Supplemental Fig. 3).
Female NOD/SCID mice weighing between 18 and 20 g were utilized for the pharmacokinetic analysis of D-pep-p6. In the plasma, D-pep-p6 pharmacokinetic profile analysis, groups of mice (n = 3) were administered a single intravenous dose of 20 mg/kg. Blood samples were collected at specified time intervals and subsequently centrifuged at 8000 rpm for 10 min. The resulting plasma was mixed with CH4O in a 3:1 (v/v) ratio and centrifuged once more at 13,000 rpm for 10 min. The supernatant was then analyzed using RP-HPLC to determine parameters such as the maximum plasma concentration (Cmax) and elimination half-life (T1/2).

[5] = system: THP-1 cells; assay: Apoptosis by Annexin V/propidium iodide staining, flow cytometry; format: cell-based, human; settings: THP-1, 48 h; Fig. 1C
Experimental: as §1
APC Annexin V Apoptosis Detection Kit with PI (BioLegend, Catalog # 640932, CA, USA) was employed to evaluate cell apoptosis. Target cells were washed twice with cold BioLegend’s Cell Staining Buffer, then suspended in Annexin V Binding Buffer at a concentration of 0.25–1.0 × 10^7 cells/ml. To 100 µL of the cell suspension, 5 µL of APC Annexin V and 10 µL of Propidium Iodide Solution (PI) were added. The suspension was gently vortexed and incubated in the dark for 15 minutes at room temperature. Finally, 400 µL of Annexin V Binding Buffer was added to each tube, and the samples were analyzed by flow cytometry. […]

[6] = system: THP-1 cells; assay: Proliferation by Ki-67 staining, FACS; format: cell-based, human; settings: THP-1, 48 h; Fig. 1D
Experimental: as §1
To assess proliferation, Ki-67 was detected using FACS after 48 h of cell culture exposed to a specific stimulation. Following the manual instruction, the target cells were incubated with 70% cold ethanol at −20 °C for 1 h, washed, and then suspended at a concentration of 1.0 × 10^7/ml in BioLegend Cell Staining Buffer. Subsequently, 100 µl cell suspension was incubated with the 5 µl Ki-67 antibody for flow cytometric analysis.

QFPGFGTELPSS [P6, monoclonal phage from Ph.D.-12 library displaying …]
MFI of CD11b expression induced by P6 relative to that induced by PMA [1]: 1.5 fold
MFI of CD14 expression induced by P6 relative to that induced by PMA [1]: 1.3 fold
capability for inducing THP-1 cell differentiation (percentage of adherent cells) among clonal phages [2]: greatest capability for inducing THP-1 cell differentiation

CC(C)C[C@@H](NC(=O)[C@@H](CCC(=O)O)NC(=O)[C@H](NC(=O)CNC(=O)[C@@H](Cc1ccccc1)NC(=O)CNC(=O)[C@H]1CCCN1C(=O)[C@@H](Cc1ccccc1)NC(=O)[C@H](N)CCC(N)=O)[C@H](C)O)C(=O)N1CCC[C@@H]1C(=O)N[C@H](CO)C(=O)N[C@H](CO)C(=O)O [D-pep-P6] (H-[dQ][dF][dP]G[dF]G[dT][dE][dL][dP][dS][dS]-OH)
signs of toxicity / overall toxicity [3]: low toxicity
resistance to proteolysis / stability in vivo ([4]; NOD/SCID mice, i.v. 20 mg/kg, from concentration-time curve): remarkable resistance to proteolysis
Cmax ([4]; mouse, iv, female NOD/SCID mice, single i.v. 20 mg/kg, n = 3 per time point, plasma (serum), RP-HPLC (HPLC coupled with mass spectrometry), read-out: maximum concentration (Cmax)): 13200 ng/mL

QFPGFGTELPSS [L-pep-P6]
signs of toxicity / overall toxicity [3]: low toxicity

CCCCCCCCCCCCCC(=O)O[C@@H]1[C@@H](C)[C@@]2(O)[C@@H](C=C(CO)C[C@]3(O)C(=O)C(C)=C[C@@H]23)[C@@H]2C(C)(C)[C@]12OC(C)=O [PMA, phorbol 12-myristate 13-acetate]
proportions of apoptotic and necrotic cells compared to the unstimulated group [5]: slight increase
proliferation (Ki-67 expression) compared to negative control [6]: significant reduction in proliferation
